Data reported in patent publication US9376418B2, “Substituted pyridine spleen tyrosine kinase (SYK) inhibitors” (Merck Sharp & Dohme Corp., priority 2012, dated 2016).

target: T1, recombinant human GST-SYK (Homo sapiens, UniProt P43405); experiment: Homogeneous Time-Resolved Fluorescence (HTRF) assay for the recombinant human Syk enzyme; assay type: biochemical; details: HTRF assay, recombinant human GST-SYK; IC50 given as class symbols; read-out: rhSYK Activity
T1 construct: purchased Carna Biosciences 08-176
In short: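 Enzyme […], pH 7.5 Tris/tween/DTT buffer; 10 min preincubation with compound, RT. Start: 250 nM biotin-peptide, 25 μM ATP, 5 mM Mg; 45′ RT. Stop/detect: 40 mM EDTA, Eu-anti-pTyr, SA-APC; read 30 min later.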

| Structure (SMILES) | IC50 [nM] |
| --- | --- |
| Cc1cc(Nc2nccc(C(F)(F)F)n2)cc(-c2ccc(C(=O)NC3CCOC3)nc2)c1 (stereo not shown) [Example 16.33, 5-(3-methyl-5-{[4-(trifluoromethyl)pyrimidin-2-yl]amino}phenyl)-N-(tetrahydrofuran-3-yl)pyridine-2-carboxamide] | 100 to 1000 |
| COC1CN(C(=O)c2ccc(-c3cc(C)cc(Nc4nccc(C(F)(F)F)n4)c3)cn2)C1 [Example 16.34, N-(3-{6-[(3-methoxyazetidin-1-yl)carbonyl]pyridin-3-yl}-5-methylphenyl)-4-(trifluoromethyl)pyrimidin-2-amine] | 100 to 1000 |
| Cc1cc(Nc2nccc(C(F)(F)F)n2)cc(-c2ccc(C(=O)NCC(O)CCCl)nc2)c1 (stereo not shown) [Example 16.35, N-(4-chloro-2-hydroxybutyl)-5-(3-methyl-5-{[4-(trifluoromethyl)pyrimidin-2-yl]amino}phenyl)pyridine-2-carboxamide] | 100 to 1000 |
| Cc1cc(Nc2nccc(C(F)(F)F)n2)cc(-c2ccc(C(=O)N(C)C(C3CC3)C3CC3)nc2)c1 [Example 16.36, N-(dicyclopropylmethyl)-N-methyl-5-(3-methyl-5-{[4-(trifluoromethyl)pyrimidin-2-yl]amino}phenyl)pyridine-2-carboxamide] | 100 to 1000 |
| Cc1cc(Nc2nccc(C(F)(F)F)n2)cc(-c2ccc(C(=O)N(C)CC3COCCO3)nc2)c1 (stereo not shown) [Example 16.38, N-(1,4-dioxan-2-ylmethyl)-N-methyl-5-(3-methyl-5-{[4-(trifluoromethyl)pyrimidin-2-yl]amino}phenyl)pyridine-2-carboxamide] | 100 to 1000 |
| Cc1cc(Nc2nccc(C(F)(F)F)n2)cc(-c2ccc(C(=O)NC(C3CC3)C3CC3)nc2)c1 [Example 16.46, N-(dicyclopropylmethyl)-5-(3-methyl-5-{[4-(trifluoromethyl)pyrimidin-2-yl]amino}phenyl)pyridine-2-carboxamide] | 100 to 1000 |
| Cc1cc(Nc2nccc(C(F)(F)F)n2)cc(-c2ccc(C(=O)NCc3ncc[nH]3)nc2)c1 [Example 16.53, N-(1H-imidazol-2-ylmethyl)-5-(3-methyl-5-{[4-(trifluoromethyl)pyrimidin-2-yl]amino}phenyl)pyridine-2-carboxamide] | 100 to 1000 |
| Cc1cc(Nc2nccc(C(F)(F)F)n2)cc(-c2ccc(C(=O)N(C)CCS(C)(=O)=O)nc2)c1 [Example 16.58, N-methyl-N-[2-(methylsulfonyl)ethyl]-5-(3-methyl-5-{[4-(trifluoromethyl)pyrimidin-2-yl]amino}phenyl)pyridine-2-carboxamide] | < 100 |
| CCN(C)C(=O)c1ccc(-c2cc(C)cc(Nc3nccc(C(F)(F)F)n3)c2)cn1 [Example 16.59, N-ethyl-N-methyl-5-(3-methyl-5-{[4-(trifluoromethyl)pyrimidin-2-yl]amino}phenyl)pyridine-2-carboxamide] | < 100 |
| Cc1cc(Nc2nccc(C(F)(F)F)n2)cc(-c2ccc(C(=O)N(CCO)CCO)nc2)c1 [Example 16.60, N,N-bis(2-hydroxyethyl)-5-(3-methyl-5-{[4-(trifluoromethyl)pyrimidin-2-yl]amino}phenyl)pyridine-2-carboxamide] | < 100 |
| CNC(=O)CN(C)C(=O)c1ccc(-c2cc(C)cc(Nc3nccc(C(F)(F)F)n3)c2)cn1 [Example 16.61, N-methyl-N-[2-(methylamino)-2-oxoethyl]-5-(3-methyl-5-{[4-(trifluoromethyl)pyrimidin-2-yl]amino}phenyl)pyridine-2-carboxamide] | < 100 |
| Cc1cc(Nc2nccc(C(F)(F)F)n2)cc(-c2ccc(C(=O)N(C)CC(N)=O)nc2)c1 [Example 16.62, N-(2-amino-2-oxoethyl)-N-methyl-5-(3-methyl-5-{[4-(trifluoromethyl)pyrimidin-2-yl]amino}phenyl)pyridine-2-carboxamide] | < 100 |
| CNC(=O)CNC(=O)c1ccc(-c2cc(C)cc(Nc3nccc(C(F)(F)F)n3)c2)cn1 [Example 16.63, N-[2-(methylamino)-2-oxoethyl]-5-(3-methyl-5-{[4-(trifluoromethyl)pyrimidin-2-yl]amino}phenyl)pyridine-2-carboxamide] | 100 to 1000 |

Next, values leading:

| IC50 [nM] | Structure (SMILES) |
| --- | --- |
| < 100 | Cc1cc(Nc2nccc(C(F)(F)F)n2)cc(-c2ccc(C(=O)N3CCOC(CCO)C3)nc2)c1 (stereo not shown) [Example 16.37, 2-(4-{[5-(3-methyl-5-{[4-(trifluoromethyl)pyrimidin-2-yl]amino}phenyl)pyridin-2-yl]carbonyl}morpholin-2-yl)ethanol] |
| < 100 | COCC1CN(C(=O)c2ccc(-c3cc(C)cc(Nc4nccc(C(F)(F)F)n4)c3)cn2)CCO1 (stereo not shown) [Example 16.39, N-[3-(6-{[2-(methoxymethyl)morpholin-4-yl]carbonyl}pyridin-3-yl)-5-methylphenyl]-4-(trifluoromethyl)pyrimidin-2-amine] |
| < 100 | Cc1cc(Nc2nccc(C(F)(F)F)n2)cc(-c2ccc(C(=O)N3C[C@H]4C[C@@H]3CO4)nc2)c1 [Example 16.40, N-(3-methyl-5-{6-[(1R,4R)-2-oxa-5-azabicyclo[2.2.1]hept-5-ylcarbonyl]pyridin-3-yl}phenyl)-4-(trifluoromethyl)pyrimidin-2-amine] |
| < 100 | Cc1cc(Nc2nccc(C(F)(F)F)n2)cc(-c2ccc(C(=O)N3C[C@H](O)C[C@H]3C)nc2)c1 [Example 16.41, (3R,5R)-5-methyl-1-{[5-(3-methyl-5-{[4-(trifluoromethyl)pyrimidin-2-yl]amino}phenyl)pyridin-2-yl]carbonyl}pyrrolidin-3-ol] |
| < 100 | Cc1cc(Nc2nccc(C(F)(F)F)n2)cc(-c2ccc(C(=O)N3CCC(C)(O)C3)nc2)c1 (stereo not shown) [Example 16.42, 3-methyl-1-{[5-(3-methyl-5-{[4-(trifluoromethyl)pyrimidin-2-yl]amino}phenyl)pyridin-2-yl]carbonyl}pyrrolidin-3-ol] |
| < 100 | Cc1cc(Nc2nccc(C(F)(F)F)n2)cc(-c2ccc(C(=O)N3CC[C@H](CO)C3)nc2)c1 [Example 16.43, [(3S)-1-{[5-(3-methyl-5-{[4-(trifluoromethyl)pyrimidin-2-yl]amino}phenyl)pyridin-2-yl]carbonyl}pyrrolidin-3-yl]methanol] |
| < 100 | Cc1cc(Nc2nccc(C(F)(F)F)n2)cc(-c2ccc(C(=O)N3CCCC34CCNC4=O)nc2)c1 (stereo not shown) [Example 16.44, 1-{[5-(3-methyl-5-{[4-(trifluoromethyl)pyrimidin-2-yl]amino}phenyl)pyridin-2-yl]carbonyl}-1,7-diazaspiro[4.4]nonan-6-one] |
| < 100 | COCC(O)CNC(=O)c1ccc(-c2cc(C)cc(Nc3nccc(C(F)(F)F)n3)c2)cn1 (stereo not shown) [Example 16.45, N-(2-hydroxy-3-methoxypropyl)-5-(3-methyl-5-{[4-(trifluoromethyl)pyrimidin-2-yl]amino}phenyl)pyridine-2-carboxamide] |
| < 100 | Cc1cc(Nc2nccc(C(F)(F)F)n2)cc(-c2ccc(C(=O)N3CCCC(C)(O)C3)nc2)c1 (stereo not shown) [Example 16.47, 3-methyl-1-{[5-(3-methyl-5-{[4-(trifluoromethyl)pyrimidin-2-yl]amino}phenyl)pyridin-2-yl]carbonyl}piperidin-3-ol] |
| < 100 | Cc1cc(Nc2nccc(C(F)(F)F)n2)cc(-c2ccc(C(=O)N3CCC(C)(O)CC3)nc2)c1 [Example 16.48, 4-methyl-1-{[5-(3-methyl-5-{[4-(trifluoromethyl)pyrimidin-2-yl]amino}phenyl)pyridin-2-yl]carbonyl}piperidin-4-ol] |
| < 100 | Cc1cc(Nc2nccc(C(F)(F)F)n2)cc(-c2ccc(C(=O)N3CC[S+]([O-])CC3)nc2)c1 [Example 16.49, N-(3-methyl-5-{6-[(1-oxidothiomorpholin-4-yl)carbonyl]pyridin-3-yl}phenyl)-4-(trifluoromethyl)pyrimidin-2-amine] |
| < 100 | Cc1cc(Nc2nccc(C(F)(F)F)n2)cc(-c2ccc(C(=O)NCCS(N)(=O)=O)nc2)c1 [Example 16.50, 5-(3-methyl-5-{[4-(trifluoromethyl)pyrimidin-2-yl]amino}phenyl)-N-(2-sulfamoylethyl)pyridine-2-carboxamide] |
| < 100 | Cc1cc(Nc2nccc(C(F)(F)F)n2)cc(-c2ccc(C(=O)N(C)Cc3n[nH]c(=O)[nH]3)nc2)c1 [Example 16.51, N-methyl-5-(3-methyl-5-{[4-(trifluoromethyl)pyrimidin-2-yl]amino}phenyl)-N-[(5-oxo-4,5-dihydro-1H-1,2,4-triazol-3-yl)methyl]pyridine-2-carboxamide] |
| < 100 | Cc1cc(Nc2nccc(C(F)(F)F)n2)cc(-c2ccc(C(=O)N3CCC[S+]([O-])CC3)nc2)c1 (stereo not shown) [Example 16.52, N-(3-methyl-5-{6-[(1-oxido-1,4-thiazepan-4-yl)carbonyl]pyridin-3-yl}phenyl)-4-(trifluoromethyl)pyrimidin-2-amine] |
| < 100 | Cc1cc(Nc2nccc(C(F)(F)F)n2)cc(-c2ccc(C(=O)NC3CCS(=O)(=O)C3)nc2)c1 (stereo not shown) [Example 16.54, N-(1,1-dioxidotetrahydrothiophen-3-yl)-5-(3-methyl-5-{[4-(trifluoromethyl)pyrimidin-2-yl]amino}phenyl)pyridine-2-carboxamide] |
| < 100 | Cc1cc(Nc2nccc(C(F)(F)F)n2)cc(-c2ccc(C(=O)N3CCS(=O)(=O)CC3)nc2)c1 [Example 16.55, N-(3-{6-[(1,1-dioxidothiomorpholin-4-yl)carbonyl]pyridin-3-yl}-5-methylphenyl)-4-(trifluoromethyl)pyrimidin-2-amine] |
| < 100 | Cc1cc(Nc2nccc(C(F)(F)F)n2)cc(-c2ccc(C(=O)N(C)CC(O)CO)nc2)c1 (stereo not shown) [Example 16.56, N-(2,3-dihydroxypropyl)-N-methyl-5-(3-methyl-5-{[4-(trifluoromethyl)pyrimidin-2-yl]amino}phenyl)pyridine-2-carboxamide] |
| < 100 | CNS(=O)(=O)CCNC(=O)c1ccc(-c2cc(C)cc(Nc3nccc(C(F)(F)F)n3)c2)cn1 [Example 16.57, N-[2-(methylsulfamoyl)ethyl]-5-(3-methyl-5-{[4-(trifluoromethyl)pyrimidin-2-yl]amino}phenyl)pyridine-2-carboxamide] |
